Measured values taken from patent US20080261931A1, “Method and Means of Preventing and Treating Sleep Disordered Breathing” (Cereu-Science AB, priority 2005, published 2008).

Assays:
[1] = tested on: patient with obstructive sleep apnea; experiment: Repeated dosing, multiple medication study with calcium acamprosate and a weight reducing agent (sibutramine); polysomnographic investigation; type: in vivo, human
Experimental: The patient had recently been started on sibutramine (Reductil® capsules, 15 mg once daily) for weight loss. A follow-up sleep investigation (investigation 2) was performed 126 days later when the patient presented a BMI of 31.8. The AHI at this occasion was 19. Calcium acamprosate therapy was started on 333 mg three times per day orally (Campral® tablets) and increased to twice 333 mg three times per day after two weeks. At the end of this treatment period of four weeks (investigation 3) the BMI was marginally changed compared with investigation 2 (31.6) but AHI had decreased to 9.

[2] = pending dosage, route of administration, and dosing scheme; extended in renal impairment; cited from earlier work
[3] = tested on: OSA patient; experiment: Repeated dosing study with calcium acamprosate in an OSA patient (polysomnographic recording); type: in vivo, human
Text: A study of repeated calcium acamprosate dosing was undertaken in a patient with a BMI of 32.2. This patient had not consumed any alcohol during the 3 months proceeding the current medication period. The patient suffered from moderate OSA (as determined by an AH index in excess of 35 during previous clinical 8-channel overnight monitoring studies). The contribution from central apneas was low and constituted 5% of obstructive events, respectively. A baseline polysomnographic recording (standard sleep montage, nasal pressure recording) was undertaken at baseline and calcium acamprosate therapy was started on 333 mg three times per day orally (Campral® tablets) with an increase to 2 times 333 mg three times per day after two weeks. Key parameters (indices) were recorded at first dosing and after daily dosing for three weeks (Table).

[4] = Week 0, investigation 1 (admission), recently started on sibutramine 15 mg once daily
[5] = Week 18, investigation 2 (126 days later), sibutramine 15 mg once daily
[6] = Week 3 of oral calcium acamprosate, Week 0 baseline 3

| SMILES | AHI (apnea/hypopnea index, number of obstructive apneic/hypopneic events per hour of sleep) [1, 4] | BMI (body mass index) [1, 4] | AHI (apnea/hypopnea index, number of obstructive apneic/hypopneic events per hour of sleep) [1, 5] | BMI (body mass index) [1, 5] | Half-life in plasma [2] | CSAI (central sleep apnea index, number of central apneic events per hour of sleep) [3, 6] | Sat <90%/hr (number of apneic/hypopneic episodes per hour of sleep with an oxygen saturation below 90%) [3, 6] | AI (apnea index, number of obstructive apneic events per hour of sleep) ([3]; Week 3 of oral calcium acamprosate, Week 0 baseline 18) | HI (hypopnea index, number of obstructive hypopneic events per hour of sleep) ([3]; Week 3 of oral calcium acamprosate, Week 0 baseline 22) | AHI (apnea/hypopnea index, number of obstructive apneic/hypopneic events per hour of sleep) ([3]; Week 3 of oral calcium acamprosate, Week 0 baseline 40) | MinSat (lowest oxygen saturation value recorded during the period of sleep) ([3]; Week 3 of oral calcium acamprosate, Week 0 baseline 86) | Number of central and mixed events ([3]; after calcium acamprosate, polysomnography) | Daytime sleepiness (patient-reported) ([3]; already after one week) | Snoring (patient-reported) ([3]; early after introduction of the medication) | Apnea reducing effect in sleep apnea ([3]; obstructive and seemingly central events, maintained over the entire study period) | Side effects ([3]; three-week study, one patient) | Apnea reducing effect in a patient with sleep apnea ([1]; added to sibutramine) | Effect of calcium acamprosate in comparison with that obtained by the weight reducing agent ([1]; combined with sibutramine) |
| --- | --- | --- | --- | --- | --- | --- | --- | --- | --- | --- | --- | --- | --- | --- | --- | --- | --- | --- |
| CC(C)CC(N(C)C)C1(c2ccc(Cl)cc2)CCC1 (stereo not drawn) [Sibutramine, sibutramine] | 30 events per hour of sleep | 33.2 kg/m^2 | 19 events per hour of sleep | 31.8 kg/m^2 | – | – | – | – | – | – | – | – | – | – | – | – | – | – |
| CC(=O)NCCCS(=O)(=O)O [calcium acamprosate] | – | – | – | – | 15 to 30 h | 2 events per hour of sleep | 1 episodes per hour of sleep | 7 events per hour of sleep | 9 events per hour of sleep | 16 events per hour of sleep | 91 | seemed to decrease in proportion to the number of obstructive events | reduction in daytime sleepiness | notable reduction in snoring | potent apnea reducing effect | No significant side effects | potent apnea reducing effect | additive |
